Reference: patent publication EP3434287B1, “SHORT AND ULTRA-SHORT ANTIMICROBIAL LIPOPEPTIDES AND USE THEREOF” (Arta Peptidion S.r.l.s., priority 2017, dated 2019)
≈ marks a conversion by molar mass, not a printed value. Where “and” joins values, the source holds several entries; their conditions need not be identical. Equal values may be shown once. Read-outs that look alike come from different tables or passages of the source. Values belong to the compound of their own block, whether it stands above or below them. Residues, ends and D or L forms follow the SMILES beside them. *: point of attachment. Myristoyl = CCCCCCCCCCCCCC(=O)*; Lauroyl = CCCCCCCCCCCC(=O)*; Octanoyl = CCCCCCCC(=O)*; Hexanoyl = CCCCCC(=O)*

Experiments:
S.aureus = format: cell-based, S. aureus (ATCC 25923)
Procedure: (§1) The antimicrobial activity of a lipopeptide can be determined using a method known in the art, for example, the broth-dilution method. Essentially, this method involves the growth of a microorganism in a liquid medium until it reaches the logarithmic phase. The test lipopeptide is serially diluted with growth medium for the test bacterium in the wells of a multiwell plate. An optimal concentration of the microorganism is added to the wells containing the serially diluted lipopeptide. The plate is incubated in a thermostat at a temperature of 37° C. for a time sufficient for the microorganism to grow. The growth of the microorganism, evaluated in comparison with a negative control (microorganism grown in the absence of the lipopeptide), is determined by detecting the absorbance of the solution containing the bacterium, for example, at 605 nm.
(§2) The minimum inhibitory concentration values (MICs) of the lipopeptides and of conventional antibiotics were determined by the broth microdilution susceptibility test following the guidelines of the NCCLS with mid-log phase cultures. Serial two-fold dilutions of each peptide were prepared (final volume of 50 ul) in 96-well polypropylene microtiter plates (UNIFO, Treviso, Italy) with MH broth for bacteria and RPMI-1640 for fungi. Each dilution series included con-trol wells without peptide. A total of 50 ul of the adjusted inoculum (approximately 5 × 10^5 cells/ml for bacteria or 5 × 10^4 cells/ml for fungi, in the appropriate medium) was added to each well. To evaluate the MIC, microtiter plates with bacteria were incubated at 37° C overnight, while those with fungi were incubated at 30° C for 48 h. The fatty acid tested were: C6 (hexanoic),C8 (octanoic),C10 (decanoic),C12 (lauric),C14 (mystiric).
as §2, with “h.” for “h. The fatty acid tested were: C6 (hexanoic),C8 (octanoic),C10 (decanoic),C12 (lauric),C14 (mystiric).”

P.aeruginosa = format: cell-based, Pseudomonas aeruginosa ATCC 27853
Procedure: as §1, §2
as §2, with “control” for “con-trol”, “h.” for “h. The fatty acid tested were: C6 (hexanoic),C8 (octanoic),C10 (decanoic),C12 (lauric),C14 (mystiric).”

E.coli = format: cell-based, Escherichia coli ATCC 25922
Procedure: as §1, §2
as §2, with “control” for “con-trol”, “h.” for “h. The fatty acid tested were: C6 (hexanoic),C8 (octanoic),C10 (decanoic),C12 (lauric),C14 (mystiric).”

Cytotoxicity, MTT assay = format: cell-based; settings: human, A549 cells (lung cancer epithelial cell line), treated for 24-72 h, read-out: LC50 (the source's name)
Procedure: In the present invention, cytotoxicity of the lipopeptides against a epithelial cell line was also determined, for example, A549 cells (lung cancer). Cells were cultured in the presence and in the absence of peptides and the damage to the membrane was evaluated by the vital stain MTT.
The colorimetric 3-(4,5-dimethylthiazol-2-yl)-2,5-diphenyl tetrazolium bromide (MTT) assay was performed to assess the metabolic activity of cells plated into 96-well culture plates (10 5 cell/well) and treated with 0.5-25 µM of in complete medium for 24-72 h. At the end of treatments, fullerenes containing medium were removed and replaced with fresh medium; for the cytotoxic assay, 20 µL stock MTT (5 mg/mL) was added to each well, and cells were then incubated for 4 hr at 37 °C. The converted MTT dye was solubilised with acidic isopropanol (0.04 N HCl in absolute isopropanol). Absorbance was measured at 540 nm and 630 nm using a microplate reader (Automated Microplate Reader EL311, BIO-TEK Instruments, Vermont, USA). All measurements were done in triplicate and each experiment was repeated at least three times.

C. albicans ATCC 90029 = format: cell-based; settings: RPMI-1640, 30° C for 48 h
Procedure: as §2, with “Italy)” for “Italy) with MH broth for bacteria and”, “h.” for “h. The fatty acid tested were: C6 (hexanoic),C8 (octanoic),C10 (decanoic),C12 (lauric),C14 (mystiric).”
(§3) This example was performed on two different strain of C.albicans. Both strain are human clinical isolate recovered from a patient with generalized candidiasis.

C.albicans SC5314 = experiment: MIC against filamentous yeast strain, broth microdilution susceptibility test (NCCLS); format: cell-based; settings: RPMI-1640, 30° C for 48 h
Procedure: as §2, with “Italy)” for “Italy) with MH broth for bacteria and”, “h.” for “h. The fatty acid tested were: C6 (hexanoic),C8 (octanoic),C10 (decanoic),C12 (lauric),C14 (mystiric).”
as §3

[1] = Example 1, effect of fatty acid length on RFWR, MH broth, 37° C overnight

SMILES: CCCCCCCCCCCC(=O)N[C@@H](CCCNC(=N)N)C(=O)N[C@@H](Cc1ccccc1)C(=O)N[C@@H](Cc1c[nH]c2ccccc12)C(=O)N[C@@H](CCCNC(=N)N)C(N)=O [Lipopeptide 4] (Lauroyl-RFWR-NH2)
Bacteria (MIC, ug/ml) S.aureus (S.aureus): 3.125 µg/mL
Bacteria (MIC, ug/ml) P.aeruginosa (P.aeruginosa): 12.5 µg/mL
Bacteria (MIC, ug/ml) E.coli (E.coli): 12.5 µg/mL

Bacteria (MIC, ug/ml) S.aureus (S.aureus): 100 µg/mL
Bacteria (MIC, ug/ml) P.aeruginosa (P.aeruginosa): 100 µg/mL
Bacteria (MIC, ug/ml) E.coli (E.coli): 100 µg/mL
SMILES: CCCCCCCC(=O)N[C@@H](CCCNC(=N)N)C(=O)N[C@@H](Cc1ccccc1)C(=O)N[C@@H](Cc1c[nH]c2ccccc12)C(=O)N[C@@H](CCCNC(=N)N)C(N)=O [Lipopeptide 2] (Octanoyl-RFWR-NH2)

SMILES: CCCCCCCCCCCC(=O)N[C@@H](CCCNC(=N)N)C(=O)N[C@@H](Cc1ccccc1)C(=O)N[C@@H](Cc1c[nH]c2ccccc12)C(=O)N[C@@H](CCCNC(=N)N)C(N)=O [Lipopeptide 3, Lau-RFWR-NH2] (Lauroyl-RFWR-NH2)
MIC against S.aureus (S.aureus): 3.66 µM (≈ 3.09 µg/mL)
Bacteria (MIC, ug/ml) S.aureus (S.aureus; [1]): 12.5 µg/mL
MIC against P. aeruginosa (P.aeruginosa): 14.7 µM
Bacteria (MIC, ug/ml) P.aeruginosa (P.aeruginosa; [1]): 50 µg/mL
MIC against P. aeruginosa (P.aeruginosa; MH broth, 37° C overnight): 12.5 µg/mL
MIC against E. coli (E.coli): 7.39 µM
Bacteria (MIC, ug/ml) E.coli (E.coli; [1]): 25 µg/mL
CC50 (Cytotoxicity, MTT assay): 100 µg/mL and ~118 µM

Bacteria (MIC, ug/ml) S.aureus (S.aureus): >400 µg/mL
Bacteria (MIC, ug/ml) P.aeruginosa (P.aeruginosa): >400 µg/mL
Bacteria (MIC, ug/ml) E.coli (E.coli): >400 µg/mL
SMILES: N=C(N)NCCC[C@H](NC(=O)[C@H](Cc1c[nH]c2ccccc12)NC(=O)[C@H](Cc1ccccc1)NC(=O)[C@@H](N)CCCNC(=N)N)C(N)=O [Lipopeptide 0] (H-RFWR-NH2; N-terminus and C-terminus assumed)

SMILES: CCCCCC(=O)N[C@@H](CCCNC(=N)N)C(=O)N[C@@H](Cc1ccccc1)C(=O)N[C@@H](Cc1c[nH]c2ccccc12)C(=O)N[C@@H](CCCNC(=N)N)C(N)=O [Lipopeptide 1] (Hexanoyl-RFWR-NH2)
Bacteria (MIC, ug/ml) S.aureus (S.aureus; [1]): >400 µg/mL
Bacteria (MIC, ug/ml) P.aeruginosa (P.aeruginosa; [1]): >400 µg/mL
Bacteria (MIC, ug/ml) E.coli (E.coli; [1]): >400 µg/mL

Bacteria (MIC, ug/ml) S.aureus (S.aureus): 6.125 µg/mL
Bacteria (MIC, ug/ml) P.aeruginosa (P.aeruginosa): 50 µg/mL
Bacteria (MIC, ug/ml) E.coli (E.coli): 25 µg/mL
SMILES: CCCCCCCCCCCCCC(=O)N[C@@H](CCCNC(=N)N)C(=O)N[C@@H](Cc1ccccc1)C(=O)N[C@@H](Cc1c[nH]c2ccccc12)C(=O)N[C@@H](CCCNC(=N)N)C(N)=O [Lipopeptide 5] (Myristoyl-RFWR-NH2)

MIC against C. albicans ATCC strain (C. albicans ATCC 90029): 1.56 µg/mL (≈ 1.35 µM)
SMILES: CCCCCCCCCCCC(=O)N[C@@H](CCCNC(=N)N)C(=O)N[C@@H](CCCNC(=N)N)C(=O)N[C@@H](Cc1ccccc1)C(=O)N[C@@H](Cc1c[nH]c2ccccc12)C(=O)N[C@@H](CCCNC(=N)N)C(=O)N[C@@H](CCCNC(=N)N)C(N)=O [Lipopeptide 16, Lau-RRFWRR-NH2] (Lauroyl-RRFWRR-NH2)

SMILES: CCCCCCCCCCCC(=O)N[C@@H](CCCNC(=N)N)C(=O)N[C@@H](CCCNC(=N)N)C(=O)N[C@@H](Cc1ccccc1)C(=O)N[C@@H](Cc1c[nH]c2ccccc12)C(N)=O [Lipopeptide 14, Lau-RRFW-NH2] (Lauroyl-RRFW-NH2)
MIC against C.albicans SC5314 strain (C.albicans SC5314): 12.5 µg/mL (≈ 14.8 µM)

SMILES: CCCCCCCCCCCC(=O)N[C@@H](CCCNC(=N)N)C(=O)N[C@@H](CCCNC(=N)N)C(=O)N[C@@H](Cc1ccccc1)C(=O)N[C@@H](Cc1c[nH]c2ccccc12)C(N)=O [Lipopeptide 14] (Lauroyl-RRFW-NH2)
MIC against P. aeruginosa (P.aeruginosa): 14.7 µM
MIC against P. aeruginosa (P.aeruginosa; MH broth, 37° C overnight): 12.5 µg/mL
MIC against E. coli (E.coli): 14.7 µM
MIC against E. coli (E.coli; MH broth, 37° C overnight): 12.5 µg/mL

SMILES: CCCCCCCCCCCC(=O)N[C@@H](CCCNC(=N)N)C(=O)N[C@@H](CCSC)C(=O)N[C@@H](Cc1c[nH]c2ccccc12)C(=O)N[C@@H](CCCNC(=N)N)C(N)=O [Lipopeptide 8, Lau-RMWR-NH2] (Lauroyl-RMWR-NH2)
MIC against C.albicans SC5314 strain (C.albicans SC5314): 12.5 µg/mL (≈ 15.1 µM)

SMILES: CCCCCCCCCCCC(=O)N[C@@H](CCCNC(=N)N)C(=O)N[C@H](C(=O)N[C@@H](Cc1c[nH]c2ccccc12)C(=O)N[C@@H](CCCNC(=N)N)C(N)=O)[C@@H](C)CC [Lipopeptide 6, Lau-RIWR-NH2] (Lauroyl-RIWR-NH2)
MIC against S.aureus (S.aureus): 1.77 µM (≈ 1.44 µg/mL)
MIC against P. aeruginosa (P.aeruginosa): 14.7 µM
MIC against P. aeruginosa (P.aeruginosa; MH broth, 37° C overnight): 12.5 µg/mL
MIC against E. coli (E.coli): 7.39 µM
MIC against C.albicans SC5314 strain (C.albicans SC5314): 12.5 µg/mL (≈ 15.4 µM)
CC50 (Cytotoxicity, MTT assay): 100 µg/mL and ~118 µM
